Measurements reported in paper PMC8413904 (Pharmacology Research & Perspectives, 2021).

Legend:
[1] = tested on: cultured rat brain cerebellar neurons; test: Dynamic calcium assay (Fluo‐8); format: cell-based; conditions: 100 µM CNS4 plus 300 µM NMDA; p < .01 vs 300 µM NMDA (12810)
Method: (§1) All animal experimental procedures and housing have been approved by the Institutional Animal Care and Use Committee (IACUC) protocol #18‐015 of Virginia Tech. Embryonic day 18 (E18) rat brain tissue samples were obtained from adult pregnant SD rats. Rat brain primary cortical, striatal, and cerebellar neurons were cultured on poly‐d‐lysine coated 96‐well plates for 14 days in vitro (DIV14) before using for the experiments. Primary rat neuron culture was performed as previously published.[44] Briefly, each well of a 96 well plate was loaded with 50 000 cells and grown in 200 µl neurobasal media supplemented with B27, glutamax, penicillin, streptomycin. One hundred microliters of media was replaced with fresh media once in 4 days. Eight to thirteen fetus were obtained from each pregnant rat. Brain tissue from these fetus were pooled to obtain the neurons. Cortical, striatal, and cerebellar neuron assays were carried out at different time points.
(§2) Dynamic calcium assay was carried out, using Fluo‐8 no‐wash kit (abcam, ab112129), as per the manufacturer's instructions with minor modifications to fit with experimental necessities. On DIV14, all 200 μl of media was removed and replaced it with 100 μl of HBSS and 100 μl of Fluo‐8 dye loading solution. The plates were incubated at 37°C for 30 min and at room temperature for 30 min. A volume of 100 µL of test chemicals (3× of desired final concentration) was added to the plates immediately before running the calcium flux assay and read the fluorescence intensity at 490/525 nm (ex/em) using Synergy microplate reader, BioTek, VT. Costar 96‐well clear bottom black side plates were read from the bottom, nine times, with 60 s intervals between each read. Temperature was set at 37°C and reading speed was 100 ms.

[2] = tested on: cultured rat brain striatal neurons; test: Dynamic calcium assay (Fluo‐8); format: cell-based
Method: as §1, §2

[3] = target: GluN1/2A (UniProt P35439+Q12879); test: Whole‐cell patch‐clamp electrophysiology in HEK293T cells; format: cell-based; design: expressed in transfected cells; host or cells: HEK-293 / HEK293T cells
Sequence of GluN1/2A (Q12879 23-1464, other chains not shown): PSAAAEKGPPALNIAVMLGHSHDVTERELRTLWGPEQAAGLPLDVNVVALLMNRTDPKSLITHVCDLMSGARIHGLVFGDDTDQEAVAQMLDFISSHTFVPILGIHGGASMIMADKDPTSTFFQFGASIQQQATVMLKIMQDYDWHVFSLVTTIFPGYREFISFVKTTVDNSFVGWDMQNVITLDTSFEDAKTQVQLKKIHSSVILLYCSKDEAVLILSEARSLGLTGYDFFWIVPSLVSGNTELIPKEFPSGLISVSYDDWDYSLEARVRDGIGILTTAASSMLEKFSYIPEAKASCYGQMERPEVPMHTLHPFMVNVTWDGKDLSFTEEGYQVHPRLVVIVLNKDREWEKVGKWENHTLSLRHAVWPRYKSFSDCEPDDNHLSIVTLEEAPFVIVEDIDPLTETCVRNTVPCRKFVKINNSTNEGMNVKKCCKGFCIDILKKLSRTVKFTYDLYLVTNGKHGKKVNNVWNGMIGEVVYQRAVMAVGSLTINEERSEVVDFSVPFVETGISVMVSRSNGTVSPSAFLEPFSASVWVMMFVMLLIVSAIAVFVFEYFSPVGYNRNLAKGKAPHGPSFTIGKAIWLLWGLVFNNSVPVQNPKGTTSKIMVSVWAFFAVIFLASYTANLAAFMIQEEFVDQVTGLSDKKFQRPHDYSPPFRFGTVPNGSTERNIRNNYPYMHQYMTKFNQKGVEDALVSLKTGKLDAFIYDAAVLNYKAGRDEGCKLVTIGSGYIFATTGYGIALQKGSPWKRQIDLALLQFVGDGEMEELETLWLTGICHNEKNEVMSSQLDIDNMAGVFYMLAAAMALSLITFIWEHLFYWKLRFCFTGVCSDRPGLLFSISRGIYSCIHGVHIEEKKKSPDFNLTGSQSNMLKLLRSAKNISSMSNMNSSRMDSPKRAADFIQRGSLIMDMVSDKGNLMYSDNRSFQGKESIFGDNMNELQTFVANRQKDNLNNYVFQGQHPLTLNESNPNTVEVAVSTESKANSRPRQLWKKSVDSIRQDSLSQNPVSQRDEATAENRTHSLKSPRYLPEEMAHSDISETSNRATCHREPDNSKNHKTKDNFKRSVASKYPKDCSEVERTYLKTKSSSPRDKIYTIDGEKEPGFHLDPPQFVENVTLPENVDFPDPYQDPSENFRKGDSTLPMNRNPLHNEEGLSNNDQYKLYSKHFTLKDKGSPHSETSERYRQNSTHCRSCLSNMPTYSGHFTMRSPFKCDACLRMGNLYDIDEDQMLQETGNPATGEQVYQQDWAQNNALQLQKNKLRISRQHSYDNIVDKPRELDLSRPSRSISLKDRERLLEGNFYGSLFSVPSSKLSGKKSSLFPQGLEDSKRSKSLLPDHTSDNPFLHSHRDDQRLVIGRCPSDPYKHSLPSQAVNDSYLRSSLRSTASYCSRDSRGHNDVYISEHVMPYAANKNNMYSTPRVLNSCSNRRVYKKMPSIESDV
Method: Whole‐cell patch‐clamp electrophysiology studies were carried out in the HEK‐293 cells, expressing recombinant NMDARs that lack native functional NMDARs.[40], [41], [42] Equal quantity of (1 µg) cDNA for GluN1a, GluN2 (A or B or C or D) subunits were co‐transfected 24–48 h before patch‐clamp electrophysiology assay. […] Cells were carefully washed before performing experiments and were used for the electrophysiology experiments after 24–48 h incubation at 37°C with 5%CO2. The whole‐cell patch‐clamp electrophysiology assay was performed using semi‐automated patch‐clamp equipment, Port‐a‐Patch (Nanion Technologies GmbH). Following are the constituents of various solutions used for patch‐clamp electrophysiology: internal solution [(mM) NaCl 10, EGTA 20, CsF 110, HEPES 10], Mg‐free external (recording) solution [(mM) NaCl 140, KCl 4, CaCl2 2, HEPES 10, D‐GlucoseMonohydrate 5], and Mg‐free seal enhancer solution [(mM) NaCl 80, KCl 3, CaCl2 35, HEPES 10]. Nanion NPC chips with […] resistance were used for the HEK‐293 cell recordings.

[4] = tested on: cultured rat brain cortical neurons; test: Dynamic calcium assay (Fluo‐8); format: cell-based
Method: as §1
as §2, with “A volume of 100 µL of test chemicals (3× of desired final concentration) was added to the plates immediately before running the calcium flux assay and read the fluorescence intensity at 490/525 nm (ex/em) using Synergy microplate reader, BioTek, VT.” left out

[5] = target: GluN1/2B (Rattus norvegicus, UniProt P35439+Q00960); test: TEVC electrophysiology dose–response in xenopus oocytes; format: cell-based; design: SEP (super-ecliptic pHluorin); host or cells: Xenopus oocytes (cRNA injection); conditions: 100 µM CNS4; 0.3 µM glutamate + 100 µM glycine; −60 mV; average ± SEM
Source text: NMDAR constructs: cDNA encoding the NMDAR1a subunit (GluN1a) was obtained from Dr. Nakanishi. cDNA encoding the GluN2B (pci_sepGluN2B) was developed initially in the Malinow lab[36] and purchased from Addgene (cat# 23998). cDNA encoding the GluN2C and GluN2D were purchased from GenScript. Mutated GluN1, 2A and 2B cDNA constructs capable of assembling as GluN1/2A/2B triheteromeric (1/2AB) receptors[37] were obtained from Dr. Paoletti (Laboratoire de Neurobiologie, CNRS). […] Plasmids were linearized with NotI (GluN1a) or Avrll (GluN2B), or BstB1 (GluN2C and GluN2D) and transcribed in vitro with T7 (GluN1a, GluN1/2A, GluN2B, GluN2C, & GluN2D) RNA polymerase using the mMessage mMachine transcription kits (Invitrogen by Thermo Fisher Scientific). […]
Electrophysiological responses were measured using a standard two‐microelectrode voltage‐clamp workstation [Warner Instruments (Hamden, Connecticut) model OC‐725C] designed to provide a fast clamp of large cells. […] Response magnitude was determined in xenopus oocytes expressing different NMDAR subunits (GluN1/2A, 1/2B, 1/2C, 1/2D, and 1/2A/2B) by the steady plateau response elicited by bath application of different agonist concentrations. […] Statistical significance was determined at the overall alpha level .05, using appropriate statistical methods as described in each figure captions.

[6] = target: GluN1/2C (UniProt P35439+Q14957); test: Current–voltage (I–V) relationship, TEVC in xenopus oocytes
Sequence of GluN1/2C (Q14957 20-1233, other chains not shown): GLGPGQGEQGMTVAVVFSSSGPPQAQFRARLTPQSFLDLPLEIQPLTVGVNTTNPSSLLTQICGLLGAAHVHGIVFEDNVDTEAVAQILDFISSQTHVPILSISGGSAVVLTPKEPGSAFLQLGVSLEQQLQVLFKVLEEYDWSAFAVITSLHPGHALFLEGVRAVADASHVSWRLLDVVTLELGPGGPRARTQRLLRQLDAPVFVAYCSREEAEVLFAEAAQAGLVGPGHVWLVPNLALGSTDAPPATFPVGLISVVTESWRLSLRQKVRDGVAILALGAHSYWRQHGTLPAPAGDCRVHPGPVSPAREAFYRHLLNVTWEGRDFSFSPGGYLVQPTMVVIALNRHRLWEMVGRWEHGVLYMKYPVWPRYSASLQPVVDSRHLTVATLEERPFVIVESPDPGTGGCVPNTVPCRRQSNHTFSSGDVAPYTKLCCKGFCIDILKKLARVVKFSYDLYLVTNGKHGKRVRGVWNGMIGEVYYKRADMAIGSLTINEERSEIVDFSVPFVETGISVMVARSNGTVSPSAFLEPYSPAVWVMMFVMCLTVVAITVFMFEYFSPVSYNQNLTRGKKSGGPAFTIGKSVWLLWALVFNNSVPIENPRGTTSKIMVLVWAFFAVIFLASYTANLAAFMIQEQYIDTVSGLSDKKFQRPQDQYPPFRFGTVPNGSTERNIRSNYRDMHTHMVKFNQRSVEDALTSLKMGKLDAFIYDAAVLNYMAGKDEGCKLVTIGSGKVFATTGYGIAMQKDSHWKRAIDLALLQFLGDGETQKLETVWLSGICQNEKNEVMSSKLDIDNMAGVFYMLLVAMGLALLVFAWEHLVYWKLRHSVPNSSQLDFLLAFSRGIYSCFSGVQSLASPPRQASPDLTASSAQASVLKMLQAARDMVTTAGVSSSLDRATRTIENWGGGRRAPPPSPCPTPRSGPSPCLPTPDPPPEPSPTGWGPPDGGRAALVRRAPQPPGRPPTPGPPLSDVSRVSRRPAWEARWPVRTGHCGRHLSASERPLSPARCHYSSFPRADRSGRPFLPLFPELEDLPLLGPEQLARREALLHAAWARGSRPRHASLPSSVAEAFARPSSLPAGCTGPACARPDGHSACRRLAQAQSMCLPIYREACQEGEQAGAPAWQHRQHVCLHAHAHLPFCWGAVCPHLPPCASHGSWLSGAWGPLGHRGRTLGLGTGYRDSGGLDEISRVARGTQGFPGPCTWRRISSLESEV
Method: (§4) GluN1A, GluN2B, GluN2C, GluN2D, and GluN1/2A/2B cRNAs were mixed in a ratio of 1:1–3. 50 nl of the final cRNA mixture was microinjected (40–70 ng total) into the oocyte cytoplasm. Oocytes were incubated in ND‐96 solution at 18^◦C prior to electrophysiological recordings (1–3 days).
(§5) After obtaining a steady‐state response to different agonist applications, agonist plus 100 μM CNS4 or agonist plus 40 μM MgCl2 plus 100 μM CNS4 was applied. […] Data points were aligned by least‐square fit by third‐order polynomial equation (Y = B0 + B1*X +B2*X ^2 + B3*X ^3), except for GluN1/2B that needed a fourth‐order polynomial equation.

[7] = tested on: cultured rat brain cerebellar neurons; test: Na^+ assay (CoroNa green‐AM); format: cell-based
Method: as §1
(§3) For Na^+ assay, DIV14 neurons were washed with HBSS and treated with freshly prepared CoroNa green‐AM dye (ThermoFisher, cat # C36676) and incubated for 45 min in 37°C. Plates were washed twice with HBSS before adding drug solutions dissolved in HBSS, and read at 492/516 nm (ex/em) using a plate reader. RFU values of background control and treatments were plotted to identify the effect of CNS4 on NMDA‐induced Na^+ flux in the neurons.

[8] = tested on: cultured rat brain striatal neurons; test: Na^+ assay (CoroNa green‐AM); format: cell-based; conditions: 0.3 µM NMDA plus 100 µM CNS4; highest level
Method: as §1, §3

[9] = target: GluN1/2D (UniProt O15399+P35439); test: Current–voltage (I–V) relationship, TEVC in xenopus oocytes
Sequence of GluN1/2D (O15399 28-1336, other chains not shown): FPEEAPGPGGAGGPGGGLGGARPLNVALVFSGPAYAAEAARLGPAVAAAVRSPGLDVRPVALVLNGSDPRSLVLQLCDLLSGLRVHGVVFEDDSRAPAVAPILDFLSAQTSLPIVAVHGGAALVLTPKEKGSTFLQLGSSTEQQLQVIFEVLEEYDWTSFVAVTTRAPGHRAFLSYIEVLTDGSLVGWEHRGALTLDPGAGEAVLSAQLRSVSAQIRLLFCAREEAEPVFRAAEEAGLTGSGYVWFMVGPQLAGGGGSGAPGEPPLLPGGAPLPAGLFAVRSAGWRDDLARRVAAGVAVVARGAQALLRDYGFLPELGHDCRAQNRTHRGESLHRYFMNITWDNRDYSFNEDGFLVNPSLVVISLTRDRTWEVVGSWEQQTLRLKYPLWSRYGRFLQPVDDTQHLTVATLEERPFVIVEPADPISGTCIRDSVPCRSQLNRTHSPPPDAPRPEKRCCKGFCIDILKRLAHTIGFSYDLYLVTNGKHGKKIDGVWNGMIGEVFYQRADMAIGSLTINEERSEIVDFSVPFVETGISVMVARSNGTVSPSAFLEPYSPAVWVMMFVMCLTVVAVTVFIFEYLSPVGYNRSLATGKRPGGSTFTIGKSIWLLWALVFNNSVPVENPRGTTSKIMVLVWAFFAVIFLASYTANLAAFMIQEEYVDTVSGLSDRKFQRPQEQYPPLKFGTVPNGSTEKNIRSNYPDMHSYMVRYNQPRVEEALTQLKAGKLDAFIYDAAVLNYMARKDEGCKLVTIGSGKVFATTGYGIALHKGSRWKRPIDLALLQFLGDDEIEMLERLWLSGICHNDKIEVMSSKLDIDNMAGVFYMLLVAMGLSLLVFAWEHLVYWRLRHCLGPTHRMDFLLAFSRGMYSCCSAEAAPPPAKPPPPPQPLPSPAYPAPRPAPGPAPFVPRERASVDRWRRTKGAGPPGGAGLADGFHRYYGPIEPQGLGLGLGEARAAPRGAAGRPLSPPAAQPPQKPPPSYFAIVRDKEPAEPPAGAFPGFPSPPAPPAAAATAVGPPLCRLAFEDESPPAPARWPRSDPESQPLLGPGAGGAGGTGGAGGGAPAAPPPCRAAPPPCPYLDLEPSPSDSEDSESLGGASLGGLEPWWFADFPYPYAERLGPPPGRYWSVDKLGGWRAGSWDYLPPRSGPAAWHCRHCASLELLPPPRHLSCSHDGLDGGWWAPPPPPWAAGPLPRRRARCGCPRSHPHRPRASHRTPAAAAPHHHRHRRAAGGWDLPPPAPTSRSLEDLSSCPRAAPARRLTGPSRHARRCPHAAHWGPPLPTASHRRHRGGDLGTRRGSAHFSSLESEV
Method: as §4, §5

[10] = 100 µM CNS4, 100 µM glutamate + 100 µM glycine, −90 to +30 mv

SMILES: O=C(NC(=S)N1CCCCC1c1cccnc1)c1ccc(F)cc1 (centres unmarked) [CNS4, 4‐fluoro‐N‐(2‐(pyridin‐3‐yl)piperidine‐1‐carbonothioyl)benzamide]
- Ca^2+ signal, rfu [1]: 14423 rfu
- Ca^2+ signal, mean rfu ([2]; 100 µM CNS4 in vehicle, no NMDA, background control 13964, p < .0001): 6317 rfu
- CNS4 induced potentiation of Ca^2+ signal vs 300 µM NMDA ([2]; 100 µM CNS4 plus 300 µM NMDA): 86%
- Ca^2+ signal, mean rfu ([2]; 100 µM CNS4 plus 300 µM NMDA, p < .0001 vs 300 µM NMDA alone (20964)): 39001 rfu
- deactivation time constant tau (τ) ([3]; 100 µM CNS4 + Ag (100 µM glutamate + 100 µM glycine), n = 19, Ag alone 710.9 ± 98.27 ms, n = 9, p < .05): 1067 ± 104.3 ms
- effect on maximum inducible current ([3]; 100 µM CNS4 co‐applied with agonist, 0.3 µM glutamate + 100 µM glycine): significantly potentiated
- effect on peak current amplitude ([3]; 100 µM CNS4 co‐applied with agonist, 100 µM glutamate + 100 µM glycine): significantly inhibited
- calcium signals compared to CNS4 alone treated cells ([4]; 100 µM CNS4 + 10 µM or higher concentrations of NMDA): significantly increased calcium signals
- Ca^2+ signal, mean rfu ([4]; 100 µM CNS4 + 100 µM GABA, p < .001 vs GABA alone (4196)): 5124 rfu
- Ca^2+ signal, mean rfu ([4]; 100 µM CNS4 + 100 µM acetylcholine, p < .0001 vs acetylcholine alone (6222)): 8082 rfu
- Ca^2+ signal, mean rfu ([4]; 100 µM CNS4 + 100 µM glutamate + 50 µM MK801, p = .7757 vs glutamate + MK801 (7997)): 8359 rfu
- Ca^2+ signal compared to background ([4]; 100 µM CNS4 in the presence of 0.3, 1, 3 µM NMDA): did not increase Ca^2+ signal
- Ca^2+ signal without NMDA ([4]; 100 µM CNS4 in vehicle (HBSS) with no NMDA, Figure 6A): no significant Ca^2+ signal
- more Ca^2+ signal compared to plain 300 µM NMDA ([4]; 100 µM CNS4 plus 300 µM NMDA): 43%
- Ca^2+ signal, mean rfu ([4]; 100 µM CNS4 plus 300 µM NMDA, p < .0001 vs 300 µM NMDA alone (26711)): 38274 rfu
- current response, agonist alone induced maximum current normalized to 100% [5]: 193.22% ± 21.2%
- inward current reversal potential ([6]; 0.3 µM glutamate + 100 µM glycine + CNS4, absence of Mg2+, without CNS4 -86.44± 0.74, p<0.0001, n=7): -75.15±1.33 mv
- inward current reversal potential ([6]; 0.3 µM glutamate + 100 µM glycine + CNS4, presence of Mg2+, without CNS4 -88.59± 0.30, p<0.001, n=7): -79.25±1.87 mv
- voltage dependence of effect on current amplitude [6, 10]: no voltage dependence effect
- reversal potential ([6]; agonist (100 µM glutamate + 100 µM glycine) + 40 µM MgCl2 + 100 µM CNS4, without CNS4 −81.75 ± 1.37, p < .01): −75.53 ± 0.59 mv
- reversal potential ([6]; agonist (100 µM glutamate + 100 µM glycine) + 100 µM CNS4, absence of Mg^2+, agonist alone −69.55 ± 1.51, p < .01): −63.64 ± 0.80 mv
- Na^+ signal ([7]; 0.3 µM NMDA plus 100 µM CNS4, highest level): 420668 rfu
- Na^+ signal ([7]; 100 µM CNS4 alone, Figure 7C): significantly increased
- Na^+ signal [8]: 426039 rfu
- inward current reversal potential ([9]; 0.3 µM glutamate + 100 µM glycine + CNS4, absence of Mg2+, without CNS4 -84.35± 0.42, p<0.0001, n=6): -72.52±0.85 mv
- inward current reversal potential ([9]; 0.3 µM glutamate + 100 µM glycine + CNS4, presence of Mg2+, without CNS4 -88.29± 0.35, p<0.0001, n=6): -77.88±0.87 mv
- voltage dependence of effect on current amplitude [9, 10]: no voltage dependence effect
- reversal potential ([9]; agonist (100 µM glutamate + 100 µM glycine) + 40 µM MgCl2 + 100 µM CNS4, without CNS4 −75.8 ± 5.51, p > .05): −72.58 ± 3.08 mv
- reversal potential ([9]; agonist (100 µM glutamate + 100 µM glycine) + 100 µM CNS4, absence of Mg^2+, agonist alone −54.2 ± 4.5, p > .05): −56.05 ± 5.8 mv
